For data set [1], the target named is BSEP (bile salt export pump) (Homo sapiens, UniProt O95342). The experiment in a line: Enhanced Cross Screen Panel (eXP): BSEP inhibition.
Data set [2] has as its system P. knowlesi YH1 rhesus erythrocyte infecting parasites. The experiment in a line: P. knowlesi in vitro IC50 assay (flow cytometry), rhesus erythrocytes. The format is cell-based. The following applies: Plasmodium knowlesi, in Macaca mulatta. As to the method:
Fig. 5. In vivo and broad-spectrum antimalarial efficacy of MED6-189. (A) The in vivo efficacy of MED6-189 was evaluated in a humanized mouse model infected with P. falciparum (blue) compared with untreated controls (black). […] The graphs illustrate the logarithmic growth of parasites (y axis) in response to varying drug concentrations (x axis). Error bars represent standard deviations from two independent experiments conducted in triplicate. The regression line is derived from a nonlinear regression analysis (variable slope with four parameters, least squares fit). (C) Proposed mode of action of MED6-189 in P. falciparum–infected erythrocytes. […]
Detailed information on materials and methods is available in the supplementary materials. […] P. knowlesi assays were quantitatively measured by flow cytometry using SYBR Green I and Mitrotracker Deep Red, as previously described ([84], [85]), on a Beckman Coulter CytoFLEX. […]
P. falciparum in vitro SYBR green fluorescence-based assays The anti-malarial activity of individual analogues were evaluated in-vitro against P. falciparum 3D7 (MRA-102, drug […]
green-I based fluorescence assay. Parasite growth rate and stages of development were determined via microscopy through Giemsa-stained smears of the cultures. […]
Background: In flow cytometry, cells or beads pass a laser one at a time.

Data set [3] can be described thus: Time course stability to conditions of varying pH (mass spectrometric assay). The format is physicochemical. The following applies: aqueous buffers pH 2-7, room temperature, 10 min to 16 h; stable down to pH 4. As to the method:
removed under reduced pressure in a rotary evaporator then under high vacuum to afford bis-formamide GB-209-3 as a colorless oil that solidified upon standing (5.2 mg, 96% yield).
Note: GB-209-3 was observed as four different amide rotamer ic species (estimated ratio = 54:35:7:4) under ambient conditions, complicating NMR spectroscopic analysis:
Isonitriles are known to be somewhat reactive functional groups. While previous studies […]
stability,3 we also wanted to account for the potential stomach-acid-catalyzed hydrolysis of the isonitriles in the course of in vivo experiments. We developed a mass spectrometric assay to understand the acid stability of the isonitriles with respect to hydrolysis to the corresponding formamides. […]
Supporting Table 1. a. Ionization (ES+) and b. inlet parameters for quantification of MED6-189 and formamides GB-209-2, and GB-209-3. […]
GB-209-2 and GB-209-3 were determined for each aliquot and plotted over time for respective pH values in the figure below describing the time course stability of MED6 -189 to conditions of varying pH over time via quantitative analysis of formamide products GB -209-2 and GB-209-3.
Time course stability of MED6 -189 to conditions of varying pH over time via quantitative analysis of formamide products GB -209-2 and GB-209-3. […]

Broadly, the IC50 is the point on the concentration scale where inhibition reaches its midpoint.

Molecules are shown by their SMILES.

Sequence of BSEP (bile salt export pump) (O95342 whole entry, species assumed): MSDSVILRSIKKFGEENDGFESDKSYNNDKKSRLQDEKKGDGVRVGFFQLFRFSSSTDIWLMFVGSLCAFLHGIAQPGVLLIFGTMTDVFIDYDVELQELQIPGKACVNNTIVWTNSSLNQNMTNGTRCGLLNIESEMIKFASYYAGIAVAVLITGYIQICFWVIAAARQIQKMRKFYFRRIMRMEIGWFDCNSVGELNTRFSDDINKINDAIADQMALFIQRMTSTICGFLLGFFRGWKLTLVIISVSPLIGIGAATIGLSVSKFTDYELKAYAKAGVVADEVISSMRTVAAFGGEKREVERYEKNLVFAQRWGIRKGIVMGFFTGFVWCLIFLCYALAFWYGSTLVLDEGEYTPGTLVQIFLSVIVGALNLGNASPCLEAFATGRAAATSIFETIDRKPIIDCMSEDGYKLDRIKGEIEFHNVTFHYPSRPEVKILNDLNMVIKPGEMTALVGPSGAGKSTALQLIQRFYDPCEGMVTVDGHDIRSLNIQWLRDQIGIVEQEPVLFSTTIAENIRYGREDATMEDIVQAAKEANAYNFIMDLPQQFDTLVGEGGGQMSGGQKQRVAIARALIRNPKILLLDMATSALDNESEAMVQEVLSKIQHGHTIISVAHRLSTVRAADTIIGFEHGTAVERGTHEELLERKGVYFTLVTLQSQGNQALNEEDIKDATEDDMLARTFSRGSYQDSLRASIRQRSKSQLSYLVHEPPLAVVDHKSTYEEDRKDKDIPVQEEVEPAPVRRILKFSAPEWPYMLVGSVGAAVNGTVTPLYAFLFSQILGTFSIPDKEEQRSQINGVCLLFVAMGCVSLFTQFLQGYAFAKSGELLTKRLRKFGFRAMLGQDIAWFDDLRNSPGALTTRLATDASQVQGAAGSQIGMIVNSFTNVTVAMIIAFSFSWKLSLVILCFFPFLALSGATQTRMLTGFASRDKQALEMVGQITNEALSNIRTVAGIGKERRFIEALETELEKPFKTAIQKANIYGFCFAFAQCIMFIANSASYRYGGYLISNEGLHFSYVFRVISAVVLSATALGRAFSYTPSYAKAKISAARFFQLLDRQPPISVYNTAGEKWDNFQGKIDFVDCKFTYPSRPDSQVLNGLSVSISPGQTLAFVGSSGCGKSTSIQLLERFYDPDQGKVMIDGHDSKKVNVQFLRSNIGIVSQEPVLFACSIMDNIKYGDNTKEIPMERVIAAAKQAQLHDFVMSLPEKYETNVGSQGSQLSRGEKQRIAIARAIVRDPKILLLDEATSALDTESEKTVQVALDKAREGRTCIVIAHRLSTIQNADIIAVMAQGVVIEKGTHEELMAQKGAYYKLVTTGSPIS

With `[C-]#[N+][C@]1(C)CC[C@H]2[C@@H]([C@@H](C(C)C)CC[C@]2(C)[N+]#[C-])[C@H]1O` [MED6-189], the IC50 in data set [1] stood at 50 µM; in data set [2], 0.276 ± 0.022 µM. For the same compound, in data set [3], the “stability to aqueous acidic conditions (hydrolysis to formamides)” value is recorded as “reasonable stability”.

The values above are taken from article PMC11793105, “A kalihinol analog disrupts apicoplast function and vesicular trafficking in P. falciparum malaria” (Science (New York, N.Y.), 2024).
